# Patent publication US6156700A, “3-(1,2-Benzisothiazol- and isoxazol-5-yl)-2,4(1H,3H)-pyrimidinedione or thione and 3-(1,2-benzisothiazol- and isoxazol-5-yl)-4(3H)-pyrimidinone or thione herbicidal agents” (American Cyanmid Company, priority 1998, dated 2000)
# Key:
# Parameters in all cases: scale not given here
# CYPIR Rice Flatsedge = assay: Postemergence weed control, flooded paddy (Table IV); type: in vivo, Cyperus iria
# Description: (§1) Plastic containers containing weeds which are 3 to 5 cm tall and rice seedlings at the 1.5 to 2.5 leaf stage are flooded with water. The water is maintained at 1.5 to 3 cm above the soil surface for the duration of the experiment. Test compounds are applied as aqueous/acetone mixtures 50/50 v/v directly into the flood water to provide the equivalent of about 0.0313 to 0.500 kg/ha of active ingredient. The treated containers are placed on greenhouse benches and cared for in accordance with conventional greenhouse procedures. Three to four weeks after treatment, the test is terminated and each container is examined and herbicidal effect rated according to the rating system provided in Example 185. The compounds evaluated are reported by compound number given in Example 185.
# [1] = test system: SAGPY Arrowhead (Pygmaea); assay: as above; type: in vivo, Sagittaria pygmaea
# Description: as §1
# [2] = test system: ECHORC Watergrass (Calif.); assay: as above; type: in vivo, Echinochloa oryzoides
# Description: as §1
# ORYSAT Rice, Tebonnet = assay: Rice tolerance, flooded paddy (Table IV); type: in vivo, Oryza sativa; conditions: crop tolerance
# Description: as §1
# MOOVA Monochoria = assay: Postemergence weed control, flooded paddy (Table IV); type: in vivo, Monochoria vaginalis
# Description: as §1
# CYPSE Flatsedge = assay: as above; type: in vivo, Cyperus serotinus
# Description: as §1
Structure (SMILES),herbicidal effect rating (CYPIR Rice Flatsedge; 0.1250 kg/ha),herbicidal effect rating (CYPIR Rice Flatsedge; 0.2500 kg/ha),herbicidal effect rating ([1]; 0.1250 kg/ha),herbicidal effect rating ([1]; 0.2500 kg/ha),herbicidal effect rating ([2]; 0.1250 kg/ha),herbicidal effect rating ([2]; 0.2500 kg/ha),"herbicidal effect rating (ORYSAT Rice, Tebonnet; 0.1250 kg/ha)","herbicidal effect rating (ORYSAT Rice, Tebonnet; 0.2500 kg/ha)",herbicidal effect rating (MOOVA Monochoria; 0.1250 kg/ha),herbicidal effect rating (MOOVA Monochoria; 0.2500 kg/ha),herbicidal effect rating (CYPSE Flatsedge; 0.1250 kg/ha),herbicidal effect rating (CYPSE Flatsedge; 0.2500 kg/ha)
"CC(C)S(=O)(=O)NC(=O)c1nsc2ccc(-n3c(=O)cc(C(F)(F)F)n(C)c3=O)cc12 [Compound 362, 1,2-Benzisothiazole-3-carboxamide,5-[3,6-dihydro-3-methyl-2,6-dioxo-4-(trifluoromethyl)-1(2H)-pyrimidinyl]-N-(isopropylsulfonyl)-]",8.0,4.0,4.0,8.0,7.0,9.0,3.0,6.0,9.0,9.0,9.0,9.0
"COc1cc(C)c(I)cc1-c1nsc2ccc(-n3c(=O)cc(C(F)(F)F)n(C)c3=O)cc12 [Compound 429, 2,4(1H,3H)-Pyrimidinedione,3-[3-(5-iodo-2-methoxy-p-tolyl)-1,2-benzisothiazol-5-yl]-1-methyl-6-(trifluoromethyl)-]",7.0,9.0,0.0,0.0,6.0,9.0,2.0,2.0,7.0,7.0,0.0,0.0
"COC(=O)COc1ccc(C)cc1-c1noc2ccc(-n3c(=O)cc(C(F)(F)F)n(C)c3=O)c(Cl)c12 [Compound 261, Acetic acid,{{2-{4-chloro-5-[3,6-dihydro-3-methyl-2,6-dioxo-4-(trifluoromethyl)-1(2H)-pyrimidinyl]-1,2-benzisoxazol-3-yl}-p-tolyl}oxy}-, methyl ester]",6.0,6.0,0.0,0.0,0.0,0.0,0.0,0.0,9.0,9.0,0.0,0.0
"C#CCOC(=O)C(C)(C)Oc1ccc(C)cc1-c1nsc2ccc(-n3c(=O)cc(C(F)(F)F)n(C)c3=O)cc12 [Compound 528, Propionic acid, 2-{{2-{5-[3,6-dihydro-3-methyl-2,6-dioxo-4-(trifluoromethyl)-i(2H)-pyrimidinyl]-1,2-benzisothiazol-3-yl}-p-tolyl}oxy}-2-methyl-, 2-propynyl ester]",6.0,6.0,0.0,,,,2.0,3.0,,,,9.0
"CON(C)C(=O)COc1ccccc1-c1nsc2ccc(-n3c(=O)cc(C(F)(F)F)n(C)c3=O)cc12 [Compound 354, Acetamide,2-{o-{5-[3,6-dihydro-3-methyl-2,6-dioxo-4-(trifluoromethyl)-1(2H)-pyrimidinyl]-1,2-benzisothiazol-3-yl}phenoxy}-N-methoxy-N-methyl-]",9.0,,9.0,,9.0,,6.0,,9.0,,9.0,
"COc1ccc(I)cc1-c1nsc2ccc(-n3c(=O)cc(C(F)(F)F)n(C)c3=O)cc12 [Compound 448, 2,4(1H,3H)-Pyrimidinedione, 3-[3-(5-iodo-2-methoxyphenyl)-1,2-benzisothiazol-5-yl]-1-methyl-6-(trifluoromethyl)-]",7.0,9.0,0.0,0.0,1.0,2.0,1.0,2.0,1.0,4.0,0.0,0.0
"CCOC(=O)COc1ccc(C)cc1-c1nsc2ccc(-n3c(=O)cc(C(F)(F)F)n(C)c3=O)cc12 [Compound 49, Ethyl {{2-{5-[3,6-dihydro-3-methyl-2,6-dioxo-4-(trifluoromethyl)-1(2H)-pyrimidinyl]-1,2-benzisothiazol-3-yl}-p-tolyl}oxy}acetate]",4.0,6.0,0.0,0.0,9.0,9.0,0.0,0.0,9.0,9.0,0.0,0.0
"CCC(C#N)(CC)c1nsc2ccc(-n3c(=O)cc(C(F)(F)F)n(C)c3=O)cc12 [Compound 445, 1,2-Benzisothiazole-3-acetonitrile, 5-[3,6-dihydro-3-methyl-2,6-dioxo-4-(trifluoromethyl)-1(2H)-pyrimidinyl]-alpha,alpha-diethyl-]",9.0,9.0,4.0,9.0,9.0,9.0,7.0,7.0,2.0,9.0,4.0,4.0
"COc1ccc(OC)c(-c2nsc3ccc(-n4c(=O)cc(C(F)(F)F)n(C)c4=O)cc23)c1 [Compound 333, 2,4(1H,3H)-Pyrimidinedione, 3-[3-(2,5-dimethoxyphenyl)-1,2-benzisothiazol-5-yl]-1-methyl-6-(trifluoromethyl)-]",9.0,9.0,4.0,4.0,9.0,9.0,6.0,6.0,9.0,9.0,4.0,8.0
"Cn1c(C(F)(F)F)cc(=O)n(-c2ccc3snc(C(=O)C(C)(C)C)c3c2)c1=O [Compound 432, 2,4(1H,3H)-Pyrimidinedione, 1-methyl-3-(3-pivaloyl-1,2-benzisothiazol-5-yl)-6-(trifluoromethyl)-]",9.0,9.0,2.0,4.0,9.0,9.0,7.0,7.0,9.0,9.0,7.0,9.0
"CCCCC(=O)c1nsc2ccc(-n3c(=O)cc(C(F)(F)F)n(C)c3=O)cc12 [Compound 431, 2,4(1H,3H)-Pyrimidinedione, 1-methyl-6-(trifluoromethyl)-3-(3-valeryl-1,2-benzisothiazol-5-yl)-]",9.0,9.0,0.0,4.0,9.0,9.0,3.0,7.0,9.0,9.0,0.0,4.0
"COc1cc2c(cc1-c1nsc3ccc(-n4c(=O)cc(C(F)(F)F)n(C)c4=O)cc13)CCC2 [Compound 380, 2,4(1H,3H)-Pyrimidinedione, 3-[3-(6-methoxy-5-indanyl)-1,2-benzisothiazol-5-yl]-1-methyl-6-(trifluoromethyl)-]",9.0,9.0,2.0,8.0,9.0,9.0,7.0,7.0,9.0,9.0,2.0,8.0
"Cc1ccc(OCC(=O)OCC2(c3ccccc3)CC2)c(-c2nsc3ccc(-n4c(=O)cc(C(F)(F)F)n(C)c4=O)cc23)c1 [Compound 517, Acetic acid, {{2-{5-[3,6-dihydro-3-methyl-2,6-dioxo-4-(trifluoromethyl)-1(2H)-pyrimidinyl]-1,2-benzisothiazol-3-yl}-p-tolyl}oxy}-, (1-phenylcyclopropyl)methyl ester]",9.0,9.0,,,0.0,0.0,0.0,0.0,,,0.0,
